Reference: patent US7092825B1, “Protein engineering” (The University of Queensland, priority 1998, dated 2006)
Positions of bridges follow the written chain, without caps; N, C: chain ends. Residues, ends and D or L forms follow the SMILES beside them.

How the values were obtained:
[1] = Blood serum stability test (RP-HPLC); type: in vitro ADME; details: 37° C.
Source text: Preliminary studies evaluated the bioavailability of SCY01 by exposing it to a variety of proteases (trypsin, chymotrypsin and pepsin) and blood serum proteins as described in MATERIALS AND METHODS. The results of the blood serum stability test are presented in Table 2, and the results of the enzyme stability tests are presented in Table 3. […] Thus emphasising the favourable chemical characteristics of disulfide-rich proteins.
Blood was collected in heparinised tubes by venapuncture. The blood was centrifuged at 5000 rpm for 20 mins and the serum decanted. The blood serum was stored at −20° C. A sample of the blood serum (900 μL) was incubated with 100 μL of the stock peptide solution (1 mg/mL in H2O) at 37° C. and aliquots (100 μL) removed at the required time. A solution of 50% CH3CN 0.1% TFA was added to precipitate the blood serum proteins and centrifuged at 13000 rpm for 5 mins. A sample of this solution (100 μL) was analysed by RP-HPLC (Vydac C18 218TP54 250×4.1 mm id 1%/min gradient H2O/CH3CN 0.1% TFA) to detect peptide digestion.

pepsin = assay: Enzyme stability test, pepsin; type: in vitro ADME; details: pepsin 1% w:v, pH 2.2, 37° C.
Experimental: To the stock peptide solution (100 μL) was added H2O (800 μL) and 0.1 M HCl (100 μL) to pH 2.2. Pepsin was added to give a 1% w:v solution and incubated at 37° C. Aliquots were removed at 0 h, 1 h and 24 hrs and analysed by RP-HPLC.

[2] = molecular target: T1, human Growth Hormone Receptor (hGHR) (Homo sapiens, UniProt P10912); assay: Growth Hormone proliferation assay (hGH-stimulated BaF3 cell proliferation, MTT); type: cell-based; details: inhibition of BaF3 cell proliferation in response to 0.5 ng/mL hGH; read-out: calculated Ki
T1 construct: expressed in transfected cells; host or cells: BaF-B03 (BaF3) pro-B cells
T1 sequence (P10912 19-638): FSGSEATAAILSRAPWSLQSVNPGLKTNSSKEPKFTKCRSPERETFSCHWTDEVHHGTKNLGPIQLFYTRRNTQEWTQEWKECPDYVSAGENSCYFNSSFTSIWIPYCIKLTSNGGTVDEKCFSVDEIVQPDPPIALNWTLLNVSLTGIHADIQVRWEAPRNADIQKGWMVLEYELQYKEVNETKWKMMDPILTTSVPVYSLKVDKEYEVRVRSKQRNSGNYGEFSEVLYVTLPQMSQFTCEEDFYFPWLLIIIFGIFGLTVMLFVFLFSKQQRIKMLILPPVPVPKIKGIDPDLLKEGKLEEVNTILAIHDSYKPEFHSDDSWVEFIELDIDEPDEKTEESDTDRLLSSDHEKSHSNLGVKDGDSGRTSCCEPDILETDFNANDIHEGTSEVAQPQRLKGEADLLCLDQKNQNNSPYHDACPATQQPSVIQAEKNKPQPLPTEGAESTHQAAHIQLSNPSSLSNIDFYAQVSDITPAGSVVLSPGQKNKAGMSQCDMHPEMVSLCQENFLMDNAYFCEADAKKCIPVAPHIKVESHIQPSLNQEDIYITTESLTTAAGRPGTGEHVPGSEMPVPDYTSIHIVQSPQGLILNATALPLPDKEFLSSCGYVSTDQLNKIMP
Experimental: SCY01 was tested for biological function by bioassay using the BaF3 cell line, which cells normally respond to GH. SCY01 was assayed at various concentrations to check its ability to inhibit BaF3 cell proliferation in response to either 0.5 ng/mL hGH, or as a control, 50 Units/mL IL-3.
BaF-B03 cells (a pro B cell line) that stably express the human Growth Hormone Receptor (hGHR) are used in this assay since they are able to elicit a GH-specific response at concentrations as low as 0.1 ng/mL hGH (4.54 pM). These cells also endogenously express the IL3 receptor and require IL3 or GM-CSF to survive in culture. The assay is based on that of Mossman, 1983, J. Immunol. Meth. 65 55, and involves the following procedure:— • (i) culture cells in RPMI-1640 medium supplemented with 10% (v/v) foetal bovine serum (FBS) and 100 units/mL IL3 under 5% CO2 at 37° C. Allow the culture to reach mid-log growth phase; • (ii) centrifuge cells at 500×g and wash with PBS to remove IL3 from the culture medium. Repeat the centrifugation and resuspend in 1 mL of RPMI-1640 plus 0.5% (v/v) FBS. […] Allow plate to rest in the dark for 5 minutes before reading; • (x) read plate at 595 nm on a microplate reader. Values obtained are directly proportional to cell number (as measured by mitochondrial dehydrogenase levels).

trypsin = assay: Enzyme stability test, trypsin; type: in vitro ADME; details: trypsin 5% w:v, NH4HCO3 pH 8.3, 37° C.
Experimental: To the peptide solution (NH4HCO3, pH 8.3, 0.87 mg/mL) was added trypsin (5% w:v). Samples were incubated at 37° C. and aliquots removed at 0, 1, 3 and 18 hrs and analysed by RP-HPLC as above.

α-chymotrypsin = assay: Enzyme stability test, chymotrypsin; type: in vitro ADME; details: chymotrypsin 5% w:v, NH4HCO3 pH 8.3, 37° C.
Experimental: To the stock peptide solution (100 μL) was added 900 μL NH4HCO3 (pH 8.3). Chymotrypsin was added to 5% w:v and incubated at 37° C. Aliquots were removed at 0 hr, 1 hr and 24 hrs and analysed by RP HPLC.

CC[C@H](C)[C@@H]1NC(=O)[C@@H]2CSSC[C@H](NC(=O)[C@H](Cc3ccccc3)NC(=O)[C@H](C)N)C(=O)N[C@@H](CC(N)=O)C(=O)N[C@@H](CC(C)C)C(=O)N[C@@H](CCCNC(=N)N)C(=O)N[C@@H](CCCCN)C(=O)N[C@H]3CSSC[C@H](NC(=O)[C@H](CCCCN)NC(=O)[C@H](CC(=O)O)NC(=O)CNC1=O)C(=O)N[C@@H](CCC(=O)O)C(=O)N[C@H](C(=O)N[C@H](C(=O)N[C@@H](CCCCN)C(N)=O)C(C)C)CSSC[C@H](NC(=O)[C@H](CCCCN)NC(=O)[C@H](CC(=O)O)NC(=O)[C@H](CCC(N)=O)NC3=O)C(=O)N[C@@H](CCC(=O)O)C(=O)N[C@@H]([C@@H](C)O)C(=O)N[C@@H](Cc1ccccc1)C(=O)NCC(=O)N[C@@H](CC(C)C)C(=O)N[C@@H](CC(C)C)C(=O)NCC(=O)N[C@@H](CCCCN)C(=O)N2 [SCY01] (H-AFCNLRKCQDKCETFGLLGKCIGDKCECVK-NH2; disulfide 3-21, 8-26, 12-28)
Blood serum stability test result, 0 hr ([1]; 0 hr): stable
Blood serum stability test result, 1 hr ([1]; 1 hr): stable
Blood serum stability test result, 24 hrs ([1]; 24 hrs): stable
Enzyme stability test result, pepsin (pepsin): Stable over 18 hrs
Ki [2]: ~200 µM
Enzyme stability test result, trypsin (trypsin): Stable over 18 hrs
Enzyme stability test result, α-chymotrypsin (α-chymotrypsin): Stable over 18 hrs
